Test results: PubChem BioAssay AID2060602 (Molecular Pharmacology Branch, DTP, NCI, 2025)

Test system: 648629-189-R-J1-PDC complex spheroids viability
Assay: Anticancer human tumor 648629-189-R-J1-PDC patient-derived bladder carcinoma cell line growth inhibition [CLK]
Details: for IC50: curve of first compound; for viability, T/C: stronger effect = lower value; active = viability on the fitted dose curve at most 10% of control; inactive = the rest
In short: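 Patient-derived tumor cells grown as complex spheroids with HUVEC endothelial cells and mesenchymal stem cells, treated with drug combinations. Concentrations descend in half-log steps from near clinical Cmax, or from 10 microM if Cmax unknown.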
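Throughout, for viability, T/C: drug exposure lasted seven days before viability readout; 100% = DMSO vehicle control wells.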

Cn1ncnc1[C@H]1c2n[nH]c(=O)c3cc(F)cc(c23)N[C@@H]1c1ccc(F)cc1 + CNC(=O)c1ccc(Nc2nc(OC3CCCC3)c3c(-c4ccc5nc(C)oc5c4)c[nH]c3n2)c(OC)c1
inactive: viability, T/C (second compound 0.0316 µM, first compound 0.000316 µM) 112% | viability, T/C (second compound 0.0316 µM, first compound 0.001 µM) 98.1% | viability, T/C (second compound 0.0316 µM, first compound 0.00316 µM) 95.4% | viability, T/C (second compound 0.0316 µM, first compound 0.01 µM) 102% | viability, T/C (second compound 0.0316 µM, first compound 0.0316 µM) 81.4% | viability, T/C (second compound 0.0316 µM, first compound 0.1 µM) 73.6% | viability, T/C (second compound 0.1 µM, first compound 0.000316 µM) 86% | viability, T/C (second compound 0.1 µM, first compound 0.001 µM) 86.3% | viability, T/C (second compound 0.1 µM, first compound 0.00316 µM) 81.5% | viability, T/C (second compound 0.1 µM, first compound 0.01 µM) 83% | viability, T/C (second compound 0.1 µM, first compound 0.0316 µM) 68.3% | viability, T/C (second compound 0.1 µM, first compound 0.1 µM) 75.8% | viability, T/C (second compound 0.316 µM, first compound 0.000316 µM) 25.7% | viability, T/C (second compound 0.316 µM, first compound 0.001 µM) 25.6% | viability, T/C (second compound 0.316 µM, first compound 0.00316 µM) 30% | viability, T/C (second compound 0.316 µM, first compound 0.01 µM) 21% | viability, T/C (second compound 0.316 µM, first compound 0.0316 µM) 22.4% | viability, T/C (second compound 0.316 µM, first compound 0.1 µM) 21.3% | viability, T/C (second compound 1 µM, first compound 0.000316 µM) 18.4% | viability, T/C (second compound 1 µM, first compound 0.001 µM) 18.9% | viability, T/C (second compound 1 µM, first compound 0.00316 µM) 17.2% | viability, T/C (second compound 1 µM, first compound 0.01 µM) 18.1% | viability, T/C (second compound 1 µM, first compound 0.0316 µM) 15.6% | viability, T/C (second compound 1 µM, first compound 0.1 µM) 12.5% | viability, T/C (second compound 3.16 µM, first compound 0.000316 µM) 19.2% | viability, T/C (second compound 3.16 µM, first compound 0.001 µM) 18.4% | viability, T/C (second compound 3.16 µM, first compound 0.00316 µM) 19.3% | viability, T/C (second compound 3.16 µM, first compound 0.01 µM) 16.3% | viability, T/C (second compound 3.16 µM, first compound 0.0316 µM) 17% | viability, T/C (second compound 3.16 µM, first compound 0.1 µM) 16.6% | viability, T/C (second compound 10 µM, first compound 0.000316 µM) 18.1% | viability, T/C (second compound 10 µM, first compound 0.001 µM) 19.5% | viability, T/C (second compound 10 µM, first compound 0.00316 µM) 20.3% | viability, T/C (second compound 10 µM, first compound 0.01 µM) 17.7% | viability, T/C (second compound 10 µM, first compound 0.0316 µM) 19.4% | viability, T/C (second compound 10 µM, first compound 0.1 µM) 14.8%
> 100 nM: IC50 (second compound 0.0316 µM) | IC50 (second compound 0.1 µM)
< 0.316 nM: IC50 (second compound 0.316 µM) | IC50 (second compound 1 µM) | IC50 (second compound 3.16 µM) | IC50 (second compound 10 µM)
